Assay results as given in patent EP3057951B1, “METHYLENE LINKED QUINOLINYL MODULATORS OF ROR-GAMMA-T” (Janssen Pharmaceutica NV, priority 2013, dated 2015).
Structures can show the parent of a compound that is named as a salt.

What follows are compounds tested against T1, wild type human RORγt LBD (Homo sapiens, UniProt P51449) (assay: RORγt (LBD) Reporter Assay (GAL4-luciferase, HEK293T cells)). Settings: 6 µM compound concentration; 6 µM.
T1 construct: expressed in transfected cells; host or cells: HEK293T
T1 sequence (P51449 258-518): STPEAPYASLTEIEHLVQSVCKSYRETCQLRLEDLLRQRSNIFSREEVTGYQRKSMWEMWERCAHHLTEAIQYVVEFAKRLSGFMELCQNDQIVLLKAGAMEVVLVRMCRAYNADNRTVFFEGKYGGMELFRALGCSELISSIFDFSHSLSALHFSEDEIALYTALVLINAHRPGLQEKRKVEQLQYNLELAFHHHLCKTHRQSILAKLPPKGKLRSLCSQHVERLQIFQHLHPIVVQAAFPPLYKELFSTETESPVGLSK
Type: cell-based
In the case of `COc1nc2ccc(C(O)(c3ccc(C)nc3C)c3cnnn3C)cc2c(Cl)c1Cc1ccc(C(F)(F)F)nc1` (single isomer, unassigned) [Example 40c, (4-Chloro-2-methoxy-3-((6-(trifluoromethyl)pyridin-3-yl)methyl)quinolin-6-yl)(2,6-dimethylpyridin-3-yl)(1-methyl-1H-1,2,3-triazol-5-yl)methanol], the “RORγt (LBD) Reporter Assay, % inhibition @ 6 µM” value (“RORγt … % inhibition @ 6 µM” for short) is reported as 94%.
`COc1nc2ccc(C(O)(c3ccccn3)c3cncn3C)cc2c(Cl)c1Cc1ccc(-n2cccn2)cc1` (single isomer, unassigned) [Example 64c, (3-(4-(1H-Pyrazol-1-yl)benzyl)-4-chloro-2-methoxyquinolin-6-yl)(1-methyl-1H-imidazol-5-yl)(pyridin-2-yl)methanol] was tested, and the “RORγt … % inhibition @ 6 µM” value was 107%.
With `COc1nc2ccc(C(O)(c3cnnn3C)c3cnc(C)n3C)cc2c(Cl)c1Cc1ccc(F)cc1` (single isomer, unassigned) [Example 65c] the “RORγt … % inhibition @ 6 µM” value was 81%.

Same assay, conditions: 6 µM compound concentration; HEK293T cells; 6 µM
With `Cn1cncc1C(O)(c1ccc(C(F)(F)F)nc1)c1ccc2nc(-n3cccn3)c(Cc3ccccc3)c(C#N)c2c1` (single isomer, unassigned) [Example 114c, 3-Benzyl-6-(hydroxy(1-methyl-1H-imidazol-5-yl)(6-(trifluoromethyl)pyridin-3-yl)methyl)-2-(1H-pyrazol-1-yl)quinoline-4-carbonitrile•TFA] the “RORγt … % inhibition @ 6 µM” value was 71%.
With `CC(=O)N1CCC(C(O)(c2ccc3nc(C(F)(F)F)c(Cc4ccccc4)c(Cl)c3c2)c2cncn2C)CC1` (single isomer, unassigned) [Example 115c, 1-(4-((3-Benzyl-4-chloro-2-(trifluoromethyl)quinolin-6-yl)(hydroxy)(1-methyl-1H-imidazol-5-yl)methyl)piperidin-1-yl)ethanone•TFA] the “RORγt … % inhibition @ 6 µM” value was 70%.
For `COc1nc2ccc(C(N)(c3ccc(C(F)(F)F)nc3)c3cncn3C)cc2c(Cl)c1Cc1ccccc1` (single isomer, unassigned) [Example 120b, (3-Benzyl-4-chloro-2-methoxyquinolin-6-yl)(1-methyl-1H-imidazol-5-yl)(6-(trifluoromethyl)pyridin-3-yl)methanamine•TFA], the “RORγt … % inhibition @ 6 µM” value was 27%.
`COc1nc2ccc(C(N)(c3ccc(C(F)(F)F)nc3)c3cncn3C)cc2c(Cl)c1Cc1ccccc1` (single isomer, unassigned) [Example 120c, (3-Benzyl-4-chloro-2-methoxyquinolin-6-yl)(1-methyl-1H-imidazol-5-yl)(6-(trifluoromethyl)pyridin-3-yl)methanamine•TFA] was tested, and the “RORγt … % inhibition @ 6 µM” value was 66%.
For `CNC(c1ccc2nc(OC)c(Cc3ccc(C(F)(F)F)cc3)c(Cl)c2c1)(c1ccc(C)nc1C)c1cnnn1C` (single isomer, unassigned) [Example 121c, 1-(4-Chloro-2-methoxy-3-(4-(trifluoromethyl)benzyl)quinolin-6-yl)-1-(2,6-dimethylpyridin-3-yl)-N-methyl-1-(1-methyl-1H-1,2,3-triazol-5-yl)methanamine•TFA], the “RORγt … % inhibition @ 6 µM” value was 101%.
For `COc1nc2ccc(C(c3ccc(C)nc3C)(c3cnnn3C)N(C)C)cc2c(Cl)c1Cc1ccc(C(F)(F)F)cc1` (single isomer, unassigned) [Example 122c, 1-(4-Chloro-2-methoxy-3-(4-(trifluoromethyl)benzyl)quinolin-6-yl)-1-(2,6-dimethylpyridin-3-yl)-N,N-dimethyl-1-(1-methyl-1H-1,2,3-triazol-5-yl)methanamine•TFA], the “RORγt … % inhibition @ 6 µM” value was 99%.

Same assay, conditions: HEK-293T, read-out: RORγt (LBD) Reporter Assay, % inhibition @ 6 µM, 6 µM compound concentration
With `COc1c(Cc2ccccc2)c(C(F)(F)F)nc2ccc(C(O)(c3ccc(Cl)cc3)c3cncn3C)cc12` (racemic) [Example 101a, (3-Benzyl-4-methoxy-2-(trifluoromethyl)quinolin-6-yl)(4-chlorophenyl)(1-methyl-1H-imidazol-5-yl)methanol•TFA] the inhibition at 6 µM was 96%.
Compound `COc1nc2ccc(C(O)(c3ccc(C)nc3C)c3cnnn3C)cc2c(Cl)c1Cc1ccc(C(F)(F)F)nc1` (single isomer, unassigned) [Example 40b, (4-Chloro-2-methoxy-3-((6-(trifluoromethyl)pyridin-3-yl)methyl)quinolin-6-yl)(2,6-dimethylpyridin-3-yl)(1-methyl-1H-1,2,3-triazol-5-yl)methanol] has an inhibition at 6 µM of 88%.
For `COc1nc2ccc(C(O)(c3ccccn3)c3cncn3C)cc2c(Cl)c1Cc1ccc(-n2cccn2)cc1` (single isomer, unassigned) [Example 64b, (3-(4-(1H-Pyrazol-1-yl)benzyl)-4-chloro-2-methoxyquinolin-6-yl)(1-methyl-1H-imidazol-5-yl)(pyridin-2-yl)methanol], the inhibition at 6 µM was 103%.
In the case of `COc1nc2ccc(C(O)(c3cnnn3C)c3cnc(C)n3C)cc2c(Cl)c1Cc1ccc(F)cc1` (single isomer, unassigned) [Example 65b], the inhibition at 6 µM is reported as 74%.
`COc1c(Cc2ccccc2)c(C(F)(F)F)nc2ccc(C(O)(c3ccc(Cl)cc3)c3cncn3C)cc12` (single isomer, unassigned) [Example 101b] showed an inhibition at 6 µM of 62%.
With `COc1c(Cc2ccccc2)c(C(F)(F)F)nc2ccc(C(O)(c3ccc(Cl)cc3)c3cncn3C)cc12` (single isomer, unassigned) [Example 101c] the inhibition at 6 µM was 89%.

Same assay, conditions: HEK-293T, read-out: RORγt (LBD) Reporter Assay, % inhibition @ 6 µM, 6 µM compound concentration; HEK293T cells
`Cn1cncc1C(O)(c1ccc(C(F)(F)F)nc1)c1ccc2nc(-c3nccn3C)c(Cc3ccccc3)c(Cl)c2c1` (single isomer, unassigned) [Example 113c, (3-Benzyl-4-chloro-2-(1-methyl-1H-imidazol-2-yl)quinolin-6-yl)(1-methyl-1H-imidazol-5-yl)(6-(trifluoromethyl)pyridin-3-yl)methanol•TFA] was tested, and the inhibition at 6 µM was 90%.
`Cn1cncc1C(O)(c1ccc(C(F)(F)F)nc1)c1ccc2nc(-n3cccn3)c(Cc3ccccc3)c(C#N)c2c1` (single isomer, unassigned) [Example 114b, 3-Benzyl-6-(hydroxy(1-methyl-1H-imidazol-5-yl)(6-(trifluoromethyl)pyridin-3-yl)methyl)-2-(1H-pyrazol-1-yl)quinoline-4-carbonitrile•TFA] gave an inhibition at 6 µM of 86%.
`CC(=O)N1CCC(C(O)(c2ccc3nc(C(F)(F)F)c(Cc4ccccc4)c(Cl)c3c2)c2cncn2C)CC1` (single isomer, unassigned) [Example 115b, 1-(4-((3-Benzyl-4-chloro-2-(trifluoromethyl)quinolin-6-yl)(hydroxy)(1-methyl-1H-imidazol-5-yl)methyl)piperidin-1-yl)ethanone•TFA] gave an inhibition at 6 µM of 67%.
`CNC(c1ccc2nc(OC)c(Cc3ccc(C(F)(F)F)cc3)c(Cl)c2c1)(c1ccc(C)nc1C)c1cnnn1C` (single isomer, unassigned) [Example 121b, 1-(4-Chloro-2-methoxy-3-(4-(trifluoromethyl)benzyl)quinolin-6-yl)-1-(2,6-dimethylpyridin-3-yl)-N-methyl-1-(1-methyl-1H-1,2,3-triazol-5-yl)methanamine•TFA] was tested, and the inhibition at 6 µM was 98%.
`COc1nc2ccc(C(c3ccc(C)nc3C)(c3cnnn3C)N(C)C)cc2c(Cl)c1Cc1ccc(C(F)(F)F)cc1` (single isomer, unassigned) [Example 122b, 1-(4-Chloro-2-methoxy-3-(4-(trifluoromethyl)benzyl)quinolin-6-yl)-1-(2,6-dimethylpyridin-3-yl)-N,N-dimethyl-1-(1-methyl-1H-1,2,3-triazol-5-yl)methanamine•TFA] gave an inhibition at 6 µM of 98%.
